The results in this text go back to ChEMBL document CHEMBL1153542, “RNase H active site inhibitors of human immunodeficiency virus type 1 reverse transcriptase: design, biochemical activity, and structural information” (J Med Chem, 2009).

Structures are written as SMILES. Activity calls are given as the source filed them. The calls are words filed in the database; no cut-off is given here.

Assay [1] deals with Human immunodeficiency virus. Briefly: Antiviral activity against HIV infected in human MT4 cells up to 100 uM by multicycle infectivity assay. The class given is functional, organism-based.
Assay [2] deals with Ribonuclease H1 (Homo sapiens) (UniProt O60930). Briefly: Inhibition of human recombinant ribonuclease H1 in presence of Mg2+.
Assay [3] has as its target T1, Ribonuclease H1 (Homo sapiens, UniProt O60930).
T1 sequence (O60930 whole entry): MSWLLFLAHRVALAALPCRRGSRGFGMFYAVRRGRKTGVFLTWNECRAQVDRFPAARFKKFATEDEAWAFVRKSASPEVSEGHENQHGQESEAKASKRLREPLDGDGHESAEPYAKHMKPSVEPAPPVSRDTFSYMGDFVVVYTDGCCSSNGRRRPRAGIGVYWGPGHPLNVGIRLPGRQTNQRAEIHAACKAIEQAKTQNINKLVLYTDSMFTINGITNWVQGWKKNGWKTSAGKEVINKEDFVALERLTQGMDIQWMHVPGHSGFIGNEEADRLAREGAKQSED
Put plainly: Inhibition of human RNase H assessed as substrate cleavage by fluorescence assay.

Consider `O=C(O)c1nc(CCc2ccccc2)nc(O)c1O`, for which, in assay [1], the result was inactive.

For `O=C(O)c1nc(-c2ccccc2)nc(O)c1O`, in assay [2], the IC50 is above 100 µM. Moreover, the outcome in assay [1] was inactive.

As for `COc1ccc(Cc2nc(O)c(O)c(C(=O)O)n2)cc1Br`, the result in assay [1] was inactive.

As to `COC(=O)c1nc(Cc2ccccc2)nc(O)c1O`, the outcome in assay [1] was inactive.

As for `O=C(O)c1nc(Cc2ccccc2)nc(O)c1O`, the result in assay [1] was inactive.

On to `O=c1[nH]c2ccccc2c(=O)n1O`, for which, in assay [1], the result was inactive. Besides, the IC50 in assay [3] was found to be 5.9 µM.

Regarding `O=C(O)c1nc(Cc2ccc(Cl)c(Cl)c2)nc(O)c1O`, in assay [1], the outcome was inactive.

For the molecule `O=C(O)c1nc(Cc2c(Br)sc3ccc(Cl)cc23)nc(O)c1O`, the result in assay [1] was inactive.

What is called IC50 is the concentration that inhibits the measured activity by half.
